Bridge positions count the residues as written; N and C are the ends. Peptide text beside a SMILES is read from it.
Key:
[1] = In vitro metabolic stability in rat plasma; type: in vitro ADME; details: 1 μM, 37° C., up to 120 min
Experimental: The linear and macrocyclic compounds 1-14 and 23-26 (SEQ ID NOs: 1-14 and 23-26) were incubated in concentration 1 μM with rat plasma (Sprague-Dawley, male; 400 μl) for different time points (0, 20, 40, 60 or 120 min) at 37° C. The incubation was terminated by acetonitrile. The collected samples were centrifuged for 20 min at 2272×g and analyzed. io Stock solutions were prepared using 50% DMSO, and the compounds were spiked 1/100 to incubation to have final DMSO content of 0.5%. The samples were analyzed by UHPLC/PDA with high resolution mass spectrometry (QE-Orbitrap-MS on DDI mode) to monitor disappearance of the compound. Enalapril 1 μM was used as a disappearance rate control. For analysis of compounds 9, 10, 13 and 14 stock solutions were prepared with PBS, and samples were analyzed by UHPLC-ToF mass spectrometry. The analytical method was optimized by using the parent compounds for optimum chromatographic properties (peak shape and retention) and mass spectrometric ionization. The ion chromatograms were extracted from the total ion chromatograms using calculated monoisotopic accurate masses with 5 mDa window. Disappearance was based on LC/MS peak areas, marking 0 min as 100%.
The first-order rate constants k (min-1) of the metabolism were obtained from the slope of time versus logarithm (% of remaining compound) plot using Excel software. The in vitro half-life (t1/2) of study compound is defined as: t1/2=In2/k. Calculated half-life is based on compound disappearance from rat plasma.

rat hepatocytes = assay: In vitro metabolic stability in rat hepatocytes; type: in vitro ADME; details: 1 μM, 37° C., up to 60 min
Experimental: The linear or macrocyclic compounds 1-14 and 23-26 (SEQ ID NOs: […]) were incubated in concentration 1 μM with pooled cryopreserved rat hepatocytes (Sprague-Dawley, male; 400 pl, 1.0 million viable cells/ml for compounds 1-8, 11-12 and 23-26 or 100 μl, 0.1 million viable cells/ml for compounds 9-10 and 13-14) for different time points (0, 10, 20, 40 or 60 min) at 37° C. The cell density and viability were determined by trypan blue exclusion method. The incubation was terminated by acetonitrile. The collected samples were centrifuged for 20 min at 2272×g and analyzed. The samples were analyzed is by UHPLC/PDA with high resolution mass spectrometry (QE-Orbitrap-MS on DDI mode) (compounds 1-8, 11-12 and 23-26) or HHPLC-ToF mass spectrometry (for compounds 9-and 13-14) to monitor disappearance of the compound. Verapramil 1 μM was used as a disappearance rate control. The analytical method was optimized by using the parent compounds for optimum chromatographic properties (peak shape and retention) and mass spectrometric ionization. The Ion chromatograms were extracted from the total ion chromatograms using calculated monoisotopic accurate masses with 5 mDa window. Disappearance was based on LC/MS peak areas, marking 0 min as 100%. The first-order rate constants k (min-1) of the metabolism were obtained from the slope of time versus logarithm (% of remaining compound) plot using Excel software. The in vitro half-life (t1/2) of study compound is defined as: t1/2In2/k. Calculated half-life is based on compound disappearance in rat liver hepatocytes.

human hepatocytes = assay: In vitro metabolic stability in human hepatocytes; type: in vitro ADME; details: 1 μM, 37° C., up to 60 min
Experimental: The linear or macrocyclic compounds 1-8, 11-14 and 23-26 (SEQ ID NOs: 1-8, 11-14 and 23-26) were incubated in concentration 1 μM with pooled cryopreserved human hepatocytes (mixed gender; 400 pl, 1.0 million viable cells/ml) for different time points (0, 20, 40 or 60 min) at 37° C. The cell density and viability were determined by trypan blue is exclusion method. The incubation was terminated by acetonitrile. The collected samples were centrifuged for 20 min at 2272×g and analyzed. The samples were analyzed by UPLC/PDA with high resolution mass spectrometry (QE-Orbitrap-MS on DDI mode) to monitor disappearance of the compound. Verapramil 1 μM was used as a disappearance rate control. The analytical method was optimized by using the parent compounds for optimum chromatographic properties (peak shape and retention) and mass spectrometric ionization. The Ion chromatograms were extracted from the total ion chromatograms using calculated monoisotopic accurate masses with 5 mDa window. Disappearance was based on LC/MS peak areas, marking 0 min as 100%. The first-order rate constants k (min-1) of the metabolism were obtained from the slope of time versus logarithm (% of remaining compound) plot using Excel software. The in vitro half-life (t1/2) of study compound is defined as: t1/2In2/k. Calculated half-life is based on compound disappearance in human liver hepatocytes.

[2] = system: 3D in vitro model of blood-brain barrier; assay: Permeation in a 3D in vitro model of blood-brain barrier; type: in vitro ADME, human endothelial cells, rat astrocytes and cortical neurons; details: 500 nM, 2 h
Experimental: Due to the interest of developing CDNF- and MANF-derived peptides for treatment of CNS diseases with peripheral route of administration, and the fact that macrocyclization can improve cell-penetration and distribution properties of peptides, the ability of the compounds to pass the blood-brain barrier was tested in an established in vitro model of the blood-brain barrier. For this purpose, macrocyclic and linear compounds were incubated at 500 nM for 2 h in a two-compartment in vitro blood-brain barrier model (n=4) followed by sample collection is and LC-MS/MS analysis.
Primary culture of astrocytes. Rat astrocytes were prepared from a E15 embryos. Briefly, pregnant female rats (Wistar, Janvier Labs) of 15 days of gestation were deeply anesthetized in a (CO2 chamber) and then killed by cervical dislocation. Fetuses were collected and immediately placed in ice-cold L15 Leibovitz medium with a 2% penicillin (10,000 U/mL) and streptomycin (10 mg/mL) solution (PS) and 1% bovine serum albumin (BSA). Full brains were treated for 20 min at 37° C. with a trypsin- EDTA solution at a final concentration of 0.05% trypsin and 0.02% EDTA. Dissociated cells were cultured in DMEM 10% fetal calf serum. Purified astrocytes were used at passage 4 (P4).
Culture of human endothelial cells. A vial of HBMEC (Primary Human Brain Microvascular Endothelial Cells, ACBRI 376) was used at a specific passage 8 (P8).
Primary culture of cortical neurons. Rat cortical neurons were cultured as described by Callizot et al., 2013 with modification. Briefly, pregnant female rats (Wistar, Janvier Labs) of […] were deeply anesthetized in a CO2 chamber and then killed by cervical io dislocation. Fetuses were collected and immediately placed in ice-cold L15 Leibovitz medium with a 2% penicillin (10,000 U/mL) and streptomycin (10 mg/mL) solution (PS) and 1% bovine serum albumin (BSA). Cortices were treated for 20 min at 37° C. with a trypsin-EDTA solution at a final concentration of 0.05% trypsin and 0.02% EDTA. The dissociation was stopped by addition of Dulbecco's modified Eagle's medium (DMEM) with 4.5 g/L of glucose, containing is DNAse I grade II (final concentration 0.5 mg/m L) and 10% fetal calf serum (FCS). Cells were mechanically dissociated by three forced passages through the tip of a 10-m1 pipette. Cells were then centrifuged at 515×g for 10 min at 4° C. The pellet resuspended in a defined culture medium consisting of Neurobasal medium with a 2% solution of B27 supplement, 2 mmol/L of L-glutamine, 2% of PS solution, 10 ng/mL of brain-derived neurotrophic factor (BDNF). Viable cells were counted in a Neubauer cytometer, using the trypan blue exclusion test. The cortical neurons were seeded in the bottom of well pre-coated with poly-L-lysine at a density of 255,000 per well in 24-well plate with insert and cultured at 37° C. in an air (95%)-CO2 (5%) incubator. The culture medium was changed every other day.
Co-Culture of endothelial cells, astrocytes and primary cortical neurons. The procedure was performed as previously published (Xue et al., 2013 with modifications, Callizot et al., 2017). Briefly, on day 0, purified astrocytes (P4) were rapidly thawed in a water bath at 37° C. The cells were immediately put in DMEM containing 10% of FCS. Cell suspension was centrifuged at 515×g for 5 min at 4° C. and the pellets were suspended in DMEM F12 containing 10% of FCS. Cells were seeded in the outer side of the insert membrane (PET, 1 μm) at the density of 45,000 cells per insert and cultured at 37° C. in an air (95%)-CO2 (5%) incubator. Thirty-six (36) hours after the astrocytes seeding, HBMEC (P8) were rapidly thawed in a water bath at 37° C. and immediately put in DMEM containing 10% of FCS. Cell suspension was centrifuged at 515×g for 5 min at 4° C. and the pellets were suspended in EGM-2 bullet kit containing 5% of FCS, 1% of PS solution, 1.4 μM of Hydrocortisone, 5 μg/mL of acid ascorbic, 1% of lipid mixture, 10 mM of HEPES, 1 ng/mL of bFGF. […]

stability in rat plasma as compared to linear counterpart [1]: improved stability | stability in rat hepatocytes as compared to linear counterpart (rat hepatocytes): significantly improved stability | stability in human hepatocytes as compared to linear counterpart (human hepatocytes): significantly improved stability | ability to pass through the in vitro blood-brain barrier as compared to linear counterpart [2]: improved ability to pass
Structure (SMILES): CC[C@H](C)[C@@H]1NC(=O)[C@H](CCCCN)NC(=O)[C@H](CCCCN)NC(=O)[C@H](CC(C)C)NC(=O)[C@H](CCC(=O)O)NC(=O)[C@H](CCCCN)NC(=O)[C@H](C(C)C)NC(=O)[C@H](CCCNC(=N)N)NC(=O)[C@H](CC(C)C)NC(=O)[C@H](CCCCN)NC(=O)[C@H](CCCCN)NC(=O)[C@H](CC(C)C)NC(=O)[C@H](CC(=O)O)NC(=O)[C@H](C(C)C)NC(=O)[C@H](CCC(=O)O)NC(=O)[C@H](C)NC(=O)[C@@H]2CSSC[C@H](NC(=O)[C@H]([C@@H](C)O)NC(=O)[C@H](CCC(=O)O)NC(=O)CNC(=O)[C@H](Cc3c[nH]c4ccccc34)NC(=O)[C@H](CC(=O)O)NC(=O)[C@H](CC(=O)O)NC(=O)[C@H](CC(C)C)NC1=O)C(=O)N[C@@H](CCCCN)C(=O)NCC(=O)N2 [Compound 4] (cyclo(AEVDLKKLRVKELKKILDDWGETCKGC); disulfide 24-27)

Reference: US20230391841A1, “MACROCYCLIC PEPTIDES” (Herantis Pharma OYJ, priority 2019, published 2023)
